How the values were obtained:
Format in all cases: functional
A498 = test: Growth inhibition of human A498 cells assessed as cell growth at 10 uM after 48 hrs by sulforhodamine B assay relative to control; conditions: A498, 48 h, read-out: Activity
IGROV-1 = test: Growth inhibition of human IGROV1 cells assessed as cell growth at 10 uM after 48 hrs by sulforhodamine B assay relative to control; conditions: IGROV-1, 48 h, read-out: Activity
UACC-257 = test: Growth inhibition of human UACC257 cells assessed as cell growth at 10 uM after 48 hrs by sulforhodamine B assay relative to control; conditions: UACC-257, 48 h, read-out: Activity
SNB-75 = test: Growth inhibition of human SNB75 cells assessed as cell growth at 10 uM after 48 hrs by sulforhodamine B assay relative to control; conditions: SNB-75, 48 h, read-out: Activity
NCI-H522 [1] = test: Growth inhibition of human NCI-H522 cells assessed as cell growth at 10 uM after 48 hrs by sulforhodamine B assay relative to control; conditions: NCI-H522, 48 h, read-out: Activity
HOP-62 = test: Growth inhibition of human HOP62 cells assessed as cell growth at 10 uM after 48 hrs by sulforhodamine B assay relative to control; conditions: HOP-62, 48 h, read-out: Activity
[2] = Growth inhibition of human EKVX cells assessed as cell growth at 10 uM after 48 hrs by sulforhodamine B assay relative to control; conditions: read-out: Activity
RPMI-8226 [3] = test: Growth inhibition of human RPMI8226 cells assessed as cell growth at 10 uM after 48 hrs by sulforhodamine B assay relative to control; conditions: RPMI-8226, 48 h, read-out: Activity
MOLT-4 = test: Growth inhibition of human MOLT4 cells assessed as cell growth at 10 uM after 48 hrs by sulforhodamine B assay relative to control; conditions: MOLT-4, 48 h, read-out: Activity
HL-60(TB) = test: Growth inhibition of human HL-60(TB) cells assessed as cell growth at 10 uM after 48 hrs by sulforhodamine B assay relative to control; conditions: HL-60, 48 h, read-out: Activity
MDA-MB-468 [4] = test: Growth inhibition of human MDA-MB-468 cells after 48 hrs by sulforhodamine B assay; conditions: MDA-MB-468, 48 h
MDA-MB-231 = test: Growth inhibition of human MDA-MB-231 cells after 48 hrs by sulforhodamine B assay; conditions: MDA-MB-231, 48 h; for CC50: read-out: LC50 (the source's name)
PC-3 = test: Growth inhibition of human PC3 cells after 48 hrs by sulforhodamine B assay; conditions: PC-3, 48 h
CAKI-1 = test: Growth inhibition of human CAKI-1 cells after 48 hrs by sulforhodamine B assay; conditions: CAKI-1, 48 h
SK-OV-3 = test: Growth inhibition of human SKOV3 cells after 48 hrs by sulforhodamine B assay; conditions: SK-OV-3, 48 h; for CC50: read-out: LC50 (the source's name)
[5] = Growth inhibition of human NCI-ADR-RES cells after 48 hrs by sulforhodamine B assay; conditions: for CC50: read-out: LC50 (the source's name)
OVCAR-4 = test: Growth inhibition of human OVCAR4 cells after 48 hrs by sulforhodamine B assay; conditions: OVCAR-4, 48 h
SK-MEL-5 = test: Growth inhibition of human SK-MEL-5 cells after 48 hrs by sulforhodamine B assay; conditions: SK-MEL-5, 48 h
SK-MEL-28 = test: Growth inhibition of human SK-MEL-28 cells after 48 hrs by sulforhodamine B assay; conditions: SK-MEL-28, 48 h; for CC50: read-out: LC50 (the source's name)
U-251 = test: Growth inhibition of human U251 cells after 48 hrs by sulforhodamine B assay; conditions: U-251, 48 h; for CC50: read-out: LC50 (the source's name)
SF-539 = test: Growth inhibition of human SF539 cells after 48 hrs by sulforhodamine B assay; conditions: SF-539, 48 h; for CC50: read-out: LC50 (the source's name)
KM12 = test: Growth inhibition of human KM12 cells after 48 hrs by sulforhodamine B assay; conditions: KM12, 48 h
[6] = Growth inhibition of human HCC2998 cells after 48 hrs by sulforhodamine B assay; conditions: HCC 2998, 48 h
NCI-H522 [7] = test: Growth inhibition of human NCI-H522 cells after 48 hrs by sulforhodamine B assay; conditions: NCI-H522, 48 h; for CC50: read-out: LC50 (the source's name)
NCI-H322M = test: Growth inhibition of human NCI-H322M cells after 48 hrs by sulforhodamine B assay; conditions: for CC50: read-out: LC50 (the source's name)
NCI-H23 = test: Growth inhibition of human NCI-H23 cells after 48 hrs by sulforhodamine B assay; conditions: NCI-H23, 48 h
HOP-92 = test: Growth inhibition of human HOP92 cells after 48 hrs by sulforhodamine B assay; conditions: HOP-92, 48 h
RPMI-8226 [8] = test: Growth inhibition of human RPMI8226 cells after 48 hrs by sulforhodamine B assay; conditions: RPMI-8226, 48 h; for CC50: read-out: LC50 (the source's name)
MDA-MB-468 [9] = test: Growth inhibition of human MDA-MB-468 cells assessed as cell growth at 10 uM after 48 hrs by sulforhodamine B assay relative to control; conditions: MDA-MB-468, 48 h, read-out: Activity
BT-549 = test: Growth inhibition of human BT549 cells assessed as cell growth at 10 uM after 48 hrs by sulforhodamine B assay relative to control; conditions: BT-549, 48 h, read-out: Activity
MCF7 = test: Growth inhibition of human MCF7 cells assessed as cell growth at 10 uM after 48 hrs by sulforhodamine B assay relative to control; conditions: MCF7, 48 h, read-out: Activity
SN12C = test: Growth inhibition of human SN12C cells assessed as cell growth at 10 uM after 48 hrs by sulforhodamine B assay relative to control; conditions: read-out: Activity
ACHN = test: Growth inhibition of human ACHN cells assessed as cell growth at 10 uM after 48 hrs by sulforhodamine B assay relative to control; conditions: read-out: Activity

## CN(C)CCNc1nc2c(c(=N)n1-c1ccccc1)c(=S)n(-c1ccccc1)c(=S)n2-c1ccccc1
A498
  growth at 10 µM: 40.3%
IGROV-1
  growth at 10 µM: 36.3%
UACC-257
  growth at 10 µM: -74.6%
SNB-75
  growth at 10 µM: 79%
NCI-H522 [1]
  growth at 10 µM: 3.16%
HOP-62
  growth at 10 µM: 6.19%
[2]
  growth at 10 µM: 39.8%
RPMI-8226 [3]
  growth at 10 µM: -4.62%
MOLT-4
  growth at 10 µM: 3.92%
HL-60(TB)
  growth at 10 µM: 36.6%
MDA-MB-468 [4]
  GI50: 1.2 µM
  LC50 (concentration killing 50% of cells): 6 µM
  TGI: 2.7 µM
MDA-MB-231
  GI50: 1.8 µM
  TGI: 5.6 µM
  CC50: 24.7 µM
PC-3
  GI50: 4 µM
  LC50 (50% lethal concentration): 51.9 µM
  TGI: 17.9 µM
CAKI-1
  GI50: 3.6 µM
  LC50: 72 µM
  TGI: 17.6 µM
SK-OV-3
  GI50: 10.3 µM
  TGI: 24.1 µM
  CC50: 56.7 µM
[5]
  GI50: 10.5 µM
  TGI: 31 µM
  CC50: 91 µM
OVCAR-4
  GI50: 3.1 µM
  TGI: 10.8 µM
SK-MEL-5
  GI50: 1.6 µM
  LC50: 6.1 µM
  TGI: 3.1 µM
SK-MEL-28
  GI50: 0.6 µM
  TGI: 2.1 µM
  CC50: 5.8 µM
U-251
  GI50: 1.5 µM
  TGI: 3.4 µM
  CC50: 7.8 µM
SF-539
  GI50: 1.8 µM
  TGI: 3.5 µM
  CC50: 7 µM
KM12
  GI50: 4.3 µM
  LC50: 49.9 µM
  TGI: 14.6 µM
[6]
  GI50: 2.3 µM
  LC50: 43 µM
  TGI: 6.8 µM
NCI-H522 [7]
  GI50: 2.1 µM
  TGI: 5.4 µM
  CC50: 27.6 µM
NCI-H322M
  GI50: 6.2 µM
  TGI: 20.7 µM
  CC50: 53.8 µM
NCI-H23
  GI50: 16.8 µM
  TGI: 42.1 µM
HOP-92
  GI50: 1.8 µM
  LC50 (concentration killing 50% of cells): 60.1 µM
  TGI: 10.3 µM
RPMI-8226 [8]
  GI50: 0.4 µM
  TGI: 2.2 µM
  CC50: 7.3 µM
MDA-MB-468 [9]
  growth at 10 µM: -34.6%
BT-549
  growth at 10 µM: 4.45%
MCF7
  growth at 10 µM: 17.9%
SN12C
  growth at 10 µM: 52.3%
ACHN
  growth at 10 µM: 28.3%

## CCCCN(CCCC)CCCNc1nc2c(c(=N)n1-c1ccccc1)c(=S)n(-c1ccccc1)c(=S)n2-c1ccccc1
A498
  growth at 10 µM: -100%
IGROV-1
  growth at 10 µM: -70.9%
UACC-257
  growth at 10 µM: -73.1%
SNB-75
  growth at 10 µM: -94.2%
NCI-H522 [1]
  growth at 10 µM: -54.8%
HOP-62
  growth at 10 µM: -99.5%
[2]
  growth at 10 µM: -74.2%
RPMI-8226 [3]
  growth at 10 µM: -53.4%
MOLT-4
  growth at 10 µM: -55.8%
HL-60(TB)
  growth at 10 µM: -74.8%
MDA-MB-468 [4]
  GI50: 0.2 µM
  LC50 (concentration killing 50% of cells): 0.6 µM
  TGI: 0.3 µM
MDA-MB-231
  GI50: 0.3 µM
  TGI: 0.9 µM
  CC50: 3 µM
PC-3
  GI50: 0.6 µM
  LC50 (50% lethal concentration): 4.6 µM
  TGI: 1.9 µM
CAKI-1
  GI50: 0.1 µM
  LC50: 3.1 µM
  TGI: 0.8 µM
SK-OV-3
  GI50: 1.5 µM
  TGI: 2.9 µM
  CC50: 5.8 µM
[5]
  GI50: 1.6 µM
  TGI: 3.3 µM
  CC50: 8.1 µM
OVCAR-4
  GI50: 0.6 µM
  TGI: 1.9 µM
OVCAR-4; read-out: LC50 (the source's name)
  CC50: 4.4 µM
SK-MEL-5
  GI50: 0.9 µM
  LC50: 4.6 µM
  TGI: 2.1 µM
SK-MEL-28
  GI50: 0.2 µM
  TGI: 0.3 µM
  CC50: 0.7 µM
U-251
  GI50: 0.3 µM
  TGI: 1.2 µM
  CC50: 3.5 µM
SF-539
  GI50: 1.2 µM
  TGI: 2.7 µM
  CC50: 5.7 µM
KM12
  GI50: 0.4 µM
  LC50: 3.8 µM
  TGI: 1.5 µM
[6]
  GI50: 0.4 µM
  LC50: 4.7 µM
  TGI: 1.8 µM
NCI-H522 [7]
  GI50: 0.2 µM
  TGI: 1.3 µM
  CC50: 5.1 µM
NCI-H322M
  GI50: 1.4 µM
  TGI: 3.2 µM
  CC50: 7.4 µM
NCI-H23
  GI50: 1.6 µM
  LC50 (concentration killing 50% of cells): 8.4 µM
  TGI: 3.4 µM
HOP-92
  GI50: 0.2 µM
  LC50 (concentration killing 50% of cells): 3.5 µM
  TGI: 0.8 µM
RPMI-8226 [8]
  GI50: 0.2 µM
  TGI: 0.3 µM
  CC50: 0.7 µM
MDA-MB-468 [9]
  growth at 10 µM: -89.9%
BT-549
  growth at 10 µM: -90.6%
MCF7
  growth at 10 µM: -88%
SN12C
  growth at 10 µM: -99.2%
ACHN
  growth at 10 µM: -95.8%
